Measurements reported in US20220087987A1, “A METHOD FOR TREATING SWI/SNF COMPLEX-DEFICIENT CANCERS COMPRISING GLUTATHIONE (GSH) METABOLIC PATHWAY INHIBITOR” (National Cancer Center, priority 2018, published 2022).

Experiments:
[1] = tested on: ARID1A-WT and ARID1A-KO HCT116 cells; assay: Cell viability and colony formation assays; format: cell-based, human; details: cell viability 5 days, colony formation 10 days
Method: Cell viability was examined by measuring the cellular ATP level using the CellTiter-Glo Luminescent Cell Viability Assay (Promega). To measure cell viability after siRNA-mediated knockdown, cell lines were transfected with siRNAs (25 nM) using Lipofectamine RNAiMAX. After 48 hrs, cells were trypsinized and repeatedly transfected with siRNAs (25 nM) using Lipofectamine RNAiMAX. Cells were trypsinized after a further 48 hrs, counted, and reseeded at the specified density in 96-well plates. To measure cell viability after drug treatment, cells were trypsinized, counted, reseeded at the specified density in 96-well plates, and exposed to the indicated concentrations of drugs. Cell viability was measured using the CellTiter-Glo Luminescent Cell Viability Assay. Luminescence was measured using an Envision Multi-label plate reader (PerkinElmer).
The effect of drug treatment on cancer cell survival was evaluated in a colony formation assay. Cells were trypsinized, counted, reseeded at the specified density in 12-well plates, exposed to the indicated concentrations of drugs for 10-14 days, and fixed for 10 min in 50% (v/v) methanol containing 0.01% (w/v) crystal violet. Images were taken on LAS-3000 Imaging System (Fujifilm) and colonies were counted using Multi Gauge software.

ARID1A-WT HCT116 cells = assay: Drug library screen, cell viability (CellTiter-Glo); format: cell-based, human; parameters: key to Cell viability, WT: % viability relative to DMSO solvent-treated cells; details: HCT116 ARID1A-WT; 10 μM for 5 days; relative to cells treated with solvent (DMSO)
In short: (§1)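 Luminescent ATP read-out (CellTiter-Glo) at day 5, normalised to solvent (DMSO) controls, in paired HCT116 lines, ARID1A knockout versus wild type. Candidates selected where KO cells fell below 40% viability and WT cells stayed above 80%.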

p53, p21 = assay: Immunoblot for p53 and p21; format: cell-based, human; details: ARID1A-WT and ARID1A-KO HCT116; 50 μM PRIMA-1, 50 μM APR-246, 10 μM Nutlin3a, 16 hrs
Method: The soluble fractions of whole-cell lysates were mixed with SDS sample buffer. […] The soluble fractions were mixed with SDS sample buffer. Tumor samples derived from xenografts were weighed and washed with PBS. […] The homogenized tumor samples were diluted in an additional 450 μl of NETN420 buffer, incubated for 30 min on ice, and centrifuged at 4° C. for 10 min at 15,000 rpm. The soluble fractions of whole-cell lysates were mixed with SDS sample buffer. Proteins were separated by SDS-PAGE, transferred to PVDF membranes, and immunoblotted with the indicated antibodies. β-actin was used as a loading control. Membranes were blocked overnight at 4° C. or for 1 hr at 25° C. with PVDF Blocking Reagent for Can Get Signal (TOYOBO) and then probed with Can Get Signal Solution 1 (TOYOBO) containing primary antibodies. After washing with TBS containing 0.1% Tween 20, the membranes were incubated with TBS containing 0.1% Tween 20, 1% BSA, and horseradish peroxidase-conjugated anti-mouse or anti-rabbit secondary antibodies, and visualized using Western Lightning ECL Pro (Perkin Elmer). Chemiluminescence signals were measured using LAS-3000 Imaging System (Fujifilm). Signal intensities were measured using Multi Gauge software.

ARID1A-KO HCT116 cells = assay: Drug library screen, cell viability (CellTiter-Glo); format: cell-based, human; parameters: key to Cell viability, KO: % viability relative to DMSO solvent-treated cells; details: HCT116 ARID1A-KO; 10 μM for 5 days; relative to cells treated with solvent (DMSO)
In short: as §1

[2] = tested on: ARID1A-deficient OVISE OCCC xenografts; assay: Mouse xenograft model, OVISE; format: in vivo, mice; details: PRIMA-1 25 mg/kg
Method: All mouse experiments were approved by the National Cancer Center (NCC) animal Ethical Committee. Cells were counted and re-suspended in a 1:1 mixture of 100 μl culture medium and 100 μl Matrigel (BD Biosciences) on ice. Thereafter, cells (RMG-I: 2×10^6 cells/mouse; TOV21G: 2×10^5 cells/mouse for ARP-246 treatment and 1×10^6 cells/mouse for BSO treatment; OVISE: 2×10^6 cells/mouse; TOV21G-shNT: 2×10^5 cells/mouse; and TOV21G-shGCLC: 2×10^5 cells/mouse) were injected subcutaneously into the flank of 6-week-old female BALB/c-nu/nu mice (CLEA and Charles River). In the subcutaneous model, once the tumors were palpable (about 3-14 days after implantation), mice were randomly divided into two groups. In the drug treatment group, mice were injected intraperitoneally with either PBS or compounds [APR-246 (50 mg/kg), PRIMA-1 (25 mg/kg), or BSO (750 mg/kg)] once daily for 12-14 days. In the doxycycline (Dox) treatment study, TOV21G-shNT cells and TOV21G-shGCLC cells were injected into the flanks of 6-week-old female BALB/c-nu/nu mice. […] Tumor growth was measured every several days using calipers. The volume of implanted tumors was calculated using the formula V=L×W2/2, where V is volume (mm^3), L is the largest diameter (mm), and W is the smallest diameter (mm). […]

For `O=C1C2CCN(CC2)C1(CO)CO` [PRIMA-1], the “growth / survival of ARID1A-KO versus ARID1A-WT cells” value [1] was “reproducibly suppressed the growth of ARID1A-KO cells but not ARID1A-WT cells”, the “Cell viability, WT” value (ARID1A-WT HCT116 cells) was 84.25 and the “expression of p53 and p21” value (p53, p21) was “did not markedly affect expression of p53 or p21”. The “Cell viability, KO” value (ARID1A-KO HCT116 cells) was 12.95, the “body weight of mice” value [2] was “without causing significant weight loss” and the “growth of xenografts (tumor volume)” value [2] was “significantly suppressed the growth”.
